# Measured values taken from publication PMC6543810, “Computational Identification of Novel Kir6 Channel Inhibitors” (Frontiers in Pharmacology, 2019).
# Read-outs that look alike come from different tables or passages of the source.
# Experiments:
# [1] = target: T1, Kir6.2/SUR2A (Rattus norvegicus, UniProt P70673); assay: Inside-out patch clamp on HEK293T excised membrane patches, WT Kir6.2/SUR2A; assay type: cell-based; conditions: for IC50: inside-out patch, HEK293T; for Hill coefficient (outward): outward current
# T1 construct: expressed in transfected cells; host or cells: HEK293T
# T1 sequence (P70673 whole entry): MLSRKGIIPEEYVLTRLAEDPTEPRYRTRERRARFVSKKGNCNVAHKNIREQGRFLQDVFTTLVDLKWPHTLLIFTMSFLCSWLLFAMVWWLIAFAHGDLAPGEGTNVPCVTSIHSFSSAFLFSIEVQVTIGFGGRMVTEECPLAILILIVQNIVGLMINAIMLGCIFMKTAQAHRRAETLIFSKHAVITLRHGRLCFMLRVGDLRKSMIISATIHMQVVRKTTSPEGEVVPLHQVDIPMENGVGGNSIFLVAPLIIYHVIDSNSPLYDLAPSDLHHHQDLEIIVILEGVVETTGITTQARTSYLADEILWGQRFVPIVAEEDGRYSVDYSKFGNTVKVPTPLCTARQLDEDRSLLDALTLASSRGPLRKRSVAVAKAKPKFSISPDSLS
# T1 sequence (Q63563 whole entry partner): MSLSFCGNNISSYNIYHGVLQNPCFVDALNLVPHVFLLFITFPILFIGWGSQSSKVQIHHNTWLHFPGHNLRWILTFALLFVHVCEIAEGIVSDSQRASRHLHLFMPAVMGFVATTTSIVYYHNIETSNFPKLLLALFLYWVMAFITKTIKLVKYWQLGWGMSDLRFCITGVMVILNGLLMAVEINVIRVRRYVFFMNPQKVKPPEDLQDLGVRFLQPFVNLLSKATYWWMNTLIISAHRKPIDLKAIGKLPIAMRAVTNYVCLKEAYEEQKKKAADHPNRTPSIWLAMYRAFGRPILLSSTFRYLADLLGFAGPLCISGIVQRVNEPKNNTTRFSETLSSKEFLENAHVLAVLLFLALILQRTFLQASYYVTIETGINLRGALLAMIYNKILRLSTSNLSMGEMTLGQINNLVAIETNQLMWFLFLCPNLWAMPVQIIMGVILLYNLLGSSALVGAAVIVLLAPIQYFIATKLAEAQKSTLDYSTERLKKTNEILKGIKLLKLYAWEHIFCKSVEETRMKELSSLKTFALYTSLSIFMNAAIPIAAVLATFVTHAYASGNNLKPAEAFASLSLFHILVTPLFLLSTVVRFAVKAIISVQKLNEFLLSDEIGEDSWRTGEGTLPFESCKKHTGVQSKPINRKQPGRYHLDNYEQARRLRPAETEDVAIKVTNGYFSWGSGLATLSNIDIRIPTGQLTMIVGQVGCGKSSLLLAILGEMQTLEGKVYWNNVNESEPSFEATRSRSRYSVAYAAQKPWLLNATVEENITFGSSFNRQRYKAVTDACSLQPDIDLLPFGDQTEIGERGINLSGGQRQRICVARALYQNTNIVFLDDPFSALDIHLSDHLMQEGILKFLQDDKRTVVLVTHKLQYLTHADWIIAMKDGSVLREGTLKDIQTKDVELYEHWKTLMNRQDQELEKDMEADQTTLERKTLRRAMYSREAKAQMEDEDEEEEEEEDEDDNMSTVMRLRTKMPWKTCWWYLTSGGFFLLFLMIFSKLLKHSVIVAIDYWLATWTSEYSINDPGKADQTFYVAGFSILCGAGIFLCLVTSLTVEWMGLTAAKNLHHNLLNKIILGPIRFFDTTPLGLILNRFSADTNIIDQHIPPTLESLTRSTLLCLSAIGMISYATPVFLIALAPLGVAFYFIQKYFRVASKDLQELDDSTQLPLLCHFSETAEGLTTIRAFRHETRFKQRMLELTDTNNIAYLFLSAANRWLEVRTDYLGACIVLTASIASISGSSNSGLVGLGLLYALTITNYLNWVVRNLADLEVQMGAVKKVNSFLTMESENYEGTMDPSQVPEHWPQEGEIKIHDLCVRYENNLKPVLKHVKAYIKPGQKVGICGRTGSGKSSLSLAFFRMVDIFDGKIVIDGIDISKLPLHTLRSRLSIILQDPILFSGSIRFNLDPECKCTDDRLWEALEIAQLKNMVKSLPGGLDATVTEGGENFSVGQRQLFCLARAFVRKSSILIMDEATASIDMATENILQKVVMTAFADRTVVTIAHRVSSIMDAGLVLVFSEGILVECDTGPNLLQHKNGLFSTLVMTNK
# Protocol: (§1) Inside-out patch clamp electrophysiology was performed as described previously ([Harakalova et al., 2012]). In short, HEK293T cells were cultured on 10 mm glass coverslips and transfected with 0.16 μg of rat pCMV6-Kir6.2, 0.16 μg of rat pCMV6-SUR2A and 0.08 μg of pEGFP1 expression constructs. Measurements were performed using an AxoPatch 200B amplifier controlled by pClamp 9 software (Molecular Devices) at 22°C using a ramp protocol ranging from −100 to +100 mV in 5 s from a holding potential of −40 mV. The sampling rate was 50 kHz, filter frequency was 2 kHz. Bath solution contained 131 mM KCl, 1 mM EGTA, 7.2 mM K2HPO4, 2.8 mM KH2PO4, 1 mM MgCl2, and pH 7.20/KOH. The pipette solution contained 145 mM KCl, 1 mM CaCl2, 1 mM MgCl2, 5 mM HEPES, and pH 7.40/KOH. Pipette resistance was 1.5–3 MΩ. […] All measurements were performed within a timeframe of 8–10 min. Fractional block at −80 and +50 mV was determined by dividing current levels obtained with test compound containing solutions by current levels of control traces recorded in the absence of test compound. Statistics (unpaired Students t-tests (two tailed)) were performed using Kaleidagraph 4.0 software (Synergy Software, Reading, PA, United States).
# (§2) Travoprost (MedChemExpress, Monmouth Junction, NJ, United States) was dissolved in DMSO at 10 mM. Test compounds were diluted in bath solution at the indicated concentrations before the start of measurements.
# [2] = target: T2, Kir6.2 C166S/SUR2A (Rattus norvegicus, UniProt P70673, C166S); assay: Inside-out patch clamp, Cantú mutant C166S Kir6.2 with SUR2A; assay type: cell-based; conditions: C166S Kir6.2 (homolog of Kir6.1 C176S)/SUR2A, outward current
# T2 construct: expressed in transfected cells; host or cells: HEK293T
# T2 sequence (P70673 whole entry C166S): as the sequence (P70673 whole entry) above, with C166S counted along it
# T2 sequence (Q63563 whole entry partner): as the sequence (Q63563 whole entry partner) above
# Protocol: as §1, §2
# [3] = target: T3, Kir6.2/SUR2A S1020P (Rattus norvegicus, UniProt P70673); assay: Inside-out patch clamp, Cantú mutant S1020P SUR2A with Kir6.2; assay type: cell-based; conditions: S1020P SUR2A/Kir6.2, outward current
# T3 construct: expressed in transfected cells; host or cells: HEK293T
# T3 sequence (P70673 whole entry, stated change not applied): as the sequence (P70673 whole entry) above
# T3 sequence (Q63563 whole entry S1016P partner): as the sequence (Q63563 whole entry partner) above, with S1016P counted along it
# Protocol: as §1, §2
# [4] = parameters: method as in Cox et al., 2000; conditions: used to treat type II diabetes mellitus; ref Cox et al., 2000; cited from earlier work
# [5] = tested on: Kir2.1; parameters: method as in Yu et al. (2012); conditions: ref Yu et al. (2012); cited from earlier work
# [6] = tested on: Kir6.2/SURx (pancreatic and heart) channels; parameters: method as in Yu et al., 2012; conditions: ref Yu et al., 2012; cited from earlier work
# [7] = tested on: vascular Kir6.1/SUR2B; parameters: method as in Yu et al., 2011; conditions: ref Yu et al., 2011; cited from earlier work
# [8] = tested on: Kir4.1; parameters: method as in Yu et al. (2012); conditions: ref Yu et al. (2012); cited from earlier work
# [9] = tested on: Kir1.1; parameters: method as in Yu et al. (2012); conditions: ref Yu et al. (2012); cited from earlier work
# [10] = outward current component (+50 mV), mean ± SEM, read-out: IC50 outward
"IC50 [1, 10]",Hill coefficient (outward) ([1]; Hill equation fit),IC50 [2],IC50 [3],"IC50 ([1]; inward current component (-80 mV), read-out: IC50 inward)","Hill coefficient (inward) ([1]; inward current, Hill equation fit)",Compound,plasma concentrations [4],sensitivity of channel to drug [5],IC50 [6],IC50 [7],sensitivity of channel to drug [8],sensitivity of channel to drug [9]
22.1 ± 2.47 µM,0.89,41.2 ± 2.89 µM,29.5 ± 3.78 µM,,,CC(C)NCC(O)COc1ccc(CCOCC2CC2)cc1 (centres unmarked) [Betaxolol],,,,,,
26 ± 1.49 µM,,34.9 ± 2.34 µM,25.4 ± 4.24 µM,,,"CN(CCOc1ccc(CC2SC(=O)NC2=O)cc1)c1ccccn1 (centres unmarked) [RSG, 5-[[4-[2-[methyl(pyridin-2-yl)amino]ethoxy]phenyl]methyl]-1,3-thiazolidine-2,4-dione]",~3 µM,insensitive,45 µM,10 µM,insensitive,insensitive
7.09 ± 0.45 µM,0.86,10.4 ± 0.87 µM,6.77 ± 0.49 µM,,,CC(NCCc1ccc(O)cc1)C(O)c1ccc(O)cc1 (centres unmarked) [Ritodrine],,,,,,
2.46 ± 0.52 µM,0.71,14.8 ± 2.16 µM,11 ± 1.28 µM,2.3 ± 1.26 µM,0.65,CC(C)OC(=O)CCC/C=C\C[C@@H]1[C@@H](/C=C/[C@@H](O)COc2cccc(C(F)(F)F)c2)[C@H](O)C[C@@H]1O [Travoprost],,,,,,
